Source: PMC7038139, “Novel Peptide CM 7 Targeted c-Met with Antitumor Activity” (Molecules, 2020)
Entries after “also recorded” stand apart in the source; their conditions may differ.

Tests used:
[1] = system: MKN-45 cells; assay: Wound healing (migration) assay; type: cell-based, Human; settings: 1% FBS, 48 h, n = 3, dose-dependent
Experimental: For the wound healing assay, MKN-45 cells (4 × 10^4 cells/well) were seeded in a 48-well culture plate. When the cells were almost completely fused, a sterile 200 μL pipette tip was used to generate a straight wound line across the monolayer cell. Then, the cells were washed with PBS and incubated in RPMI 1640 medium containing 1% FBS with CM 7 or Crizotinib at the indicated concentration for 48 h. The experiment was performed in triplicate, and the cell migration toward the gap was captured using the microscope.

[2] = system: MDCK cells; assay: Cell scatter assay (HGF-induced); type: cell-based, canine; settings: HGF 100 ng/mL, 24 h, 37 °C
Experimental: MDCK cells were detached from the tissue culture plate and seeded in 96-well plates at the final concentration of 1.5 × 10^3 cells/well overnight. Different concentrations of CM 7 without or with HGF (100 ng/mL) were added to the preset wells. After incubating for 24 h at 37 °C and 5% CO2, 4% paraformaldehyde was used to fix the cells, which were then stained with 0.2% crystal violet. The plates were washed with clean water. When dried, an Olympus IX53 microscope was used to capture the images.

[3] = system: human c-Met protein; assay: Affinity to c-Met protein (as stated in abstract and discussion); type: binding; settings: in words only; Kd not given
[4] = system: MKN-28 cells; assay: Cell proliferation assay, MKN-28; type: cell-based, Human; settings: CM 7, various concentrations; 4 days; serum-free medium; cell count; means of six determinations
Experimental: (§1) Human gastric cancer cell line MKN-45 cells were from the Chinese Academy of Medical Sciences, Beijing, China. Human gastric cancer cell line MKN-28 cells, the human glioma cell line U87 cells, and MDCK cells were obtained from the American Type Culture Collection (ATCC). The MKN-45 and MKN-28 cells were grown under a humidified atmosphere of 5% CO2 at 37 °C in RPMI 1640 medium (Biological Industries, Israel), supplemented with 10% fetal bovine serum (FBS, Biological Industries, Israel), 2 mmol/L L-glutamine (Gibco, Life Technologies, Grand Island, NY, USA), 100 U/mL penicillin, and 100 μg/mL streptomycin (Invitrogen, Carlsbad, CA, USA). MDCK and U87 cells were cultured under a humidified atmosphere of 5% CO2 at 37 °C in Dulbecco’s modified Eagle’s medium (DMEM) (Gibco, Life Technologies, Grand Island, NY, USA), supplemented with 10% FBS, 2 mmol/L L-glutamine (Gibco, Life Technologies, Grand Island, NY, USA), 100 U/mL penicillin, and 100 μg/mL streptomycin (Invitrogen, Carlsbad, CA, USA).
(§2) As described in the literature, MKN-45, MKN-28, and U87 cells were seeded into 48-well culture plates (6500 cells/well) and cultured overnight. […] After 4 days, the cells were trypsinized and counted by a cell counter. […]

[5] = system: c-Met and its downstream signaling molecules in MKN-45 cells; assay: Western blot of c-Met signaling, MKN-45; type: cell-based, Human; settings: 24 h
Experimental: (§3) Western blot analysis was performed using an extraction buffer as described. MKN-45, MKN-28 and U87 cells were cultured in serum-free medium overnight, then treated with the indicated dose of peptide CM 7 for 24 h at 37 °C after stimulated without or with HGF for 15 min. Next, total cell lysates were separated by 12% SDS-polyacrylamide gel (SDS-PAGE) and transferred to polyvinylidene difluoride (PVDF) membranes. The PVDF membranes were probed with following primary antibodies: anti-phospho-Met (Tyr1234/1235, (Cell Signaling Technology, Beverly, MA, USA), anti-Met (Affinity, USA), anti-phospho-AKT (Ser473, (Affinity, USA)), anti-AKT (Affinity, USA), anti-phospho-Erk1/2 (Thr202/Tyr204, (Affinity, USA)), anti-Erk1/2 (Affinity, USA), anti-E-cadherin (WanleiBio, Shengyang, China), and anti-GAPDH (Multi Sciences, Hangzhou, China). Then, horseradish-peroxidase-conjugated anti-rabbit IgG was used as a second antibody. The immunoreactive proteins were exposed using an enhanced chemiluminescence detection reagent (WanleiBio, Shengyang, China). After sacrificing the mice and isolating the tumor tissue, Western blot was performed as previously described.

[6] = system: U87 cells; assay: Cell proliferation assay, U87 (HGF-stimulated); type: cell-based, human; settings: CM 7, various concentrations; 20 ng/mL HGF; 4 days; serum-free medium; cell count; means of six determinations
Experimental: as §1, §2

[7] = system: MKN-45 tumor xenografts; assay: MKN-45 xenograft antitumor activity in nude mice; type: in vivo, Human
Experimental: Four-to-five-week-old female Balb/c nude mice, housed in specific pathogen-free conditions, were used to evaluate antitumor activity in vivo. All animal studies were performed according to the institutional ethical guidelines for animal care.
MKN-45 cells at a density of 5 × 10^6 in 200 μL were injected subcutaneously into the flank of the mice. CM 7 (5, 10, or 20 mg/kg) was injected subcutaneously for each group twice a day for four weeks. As a positive control, Crizotinib (50 mg/kg) was given to tumor-bearing mice by gavage once a day for a total of 28 days. The tumor volume was measured with calipers in two dimensions: tumor volume = 1/2 × a × b^2, where a is the length of the tumor, and b is the width of the tumor. All of the mice were sacrificed on day 42, and the tumor tissue was isolated and weighed.

[8] = system: c-Met and its downstream signaling molecules in MKN-28 cells; assay: Western blot of c-Met signaling, MKN-28; type: cell-based, Human
Experimental: as §3

[9] = system: MKN-45 cells; assay: Transwell invasion assay; type: cell-based, Human; settings: Matrigel-coated Transwell, 8 μm pores; 48 h; n = 3; dose-dependent
Experimental: For the invasion assay, a chamber was placed into a 24-well culture plate with 600 μL RPMI 1640 medium containing 10% FBS. MKN-45 cells were resuspended in serum-free medium and cultured on the upper compartment of the Transwell chamber (1.0 × 10^5 cells/well; pore size, 8 μm; Merck Millipore, Germany) coated with Matrigel. CM 7 and Crizotinib were added to the top side of the membrane at the indicated concentrations. After 48 h, the noninvaded cells were removed, and the invaded cells were fixed with ethanol and stained with crystal violet solution (0.1%) for 15 min at room temperature. The experiment was performed in triplicate, and images were obtained using an Olympus IX53 microscope (Olympus, Japan).

[10] = system: MKN-45 cells; assay: Cell proliferation assay, MKN-45; type: cell-based, Human; settings: CM 7, various concentrations; 4 days; serum-free medium; cell count; means of six determinations
Experimental: as §1, §2

With “DQIIANN [CM 7, Novel peptide DQIIANN targeting the tyrosine kinase receptor c-Met]” the “Inhibition of cell migration” value [1] was “moderate regulation; also recorded: significantly inhibit cell invasion (Figure 7A,C) and cell migration”, the “Inhibition of growth of cell pseudopodia” value ([2]; 1 μM) was “completely inhibited” and the “Inhibition of HGF-induced cell scattering” value ([2]; dose-dependent) was “moderate regulation; also recorded: remarkably inhibit the HGF-induced cell scattering of MDCK cells in a dose-dependent manner”. The “Affinity to c-Met” value [3] was “specific binding to c-Met with high affinity”, the “Inhibition of cell proliferation” value [4] was “no effect” and the “Expression of E-cadherin” value [5] was “increase the expression of E-cadherin”. The “Phosphorylation of c-Met, Akt and Erk” value ([5]; dose-dependent) was “effectively inhibit”, the “Inhibition of cell proliferation” value [6] was “inhibit the proliferation of MKN-45 or U87 cells to a certain extent with considerable dose dependence” and the “Inhibition of tumor growth versus vehicle (PBS)” value ([7]; 20 mg/kg s.c. twice a day, 28 days, n = 5–6) was “significantly inhibited tumor growth”. For the same substance, the “Inhibition of tumor growth relative to Crizotinib” value ([7]; CM 7 20 mg/kg s.c. twice a day vs Crizotinib 50 mg/kg by gavage daily, 28 days) was “weaker than the positive control group (Crizotinib)”, the “Growth inhibition rate of tumor masses” value ([7]; xenograft mouse model using MKN-45 cells, dose not printed with the value (5, 10, 20 mg/kg s.c. twice a day tested)) was 62% and the “Expression of E-cadherin” value [8] was “no effect”. For the same substance, the “Phosphorylation of c-Met, Akt and Erk” value [8] was “not MKN-28 cells; also recorded: no effect”, the “Inhibition of cell invasion” value [9] was “moderate regulation; also recorded: significantly inhibit cell invasion” and the “Inhibition of cell proliferation” value [10] was “moderate regulation; also recorded: inhibit the proliferation of MKN-45 or U87 cells to a certain extent with considerable dose dependence”.
